Experimental findings from patent publication US20170368031A1, “SOLID DISPERSION FORMULATIONS OF ANTIVIRAL COMPOUNDS” (Merck Sharp & Dohme Corp., priority 2014, published 2017) are described below.

A short description of data set [1]: Human clinical biocomparison study: oral absorption from grazoprevir and Formulation 3 with and without pH-raising medication. The settings on record: in vivo, 100 mg grazoprevir/50 mg Compound I, healthy subjects. The procedure:
The Formulation 2 spray dried intermediate was blended and roller compacted along with microcrystalline cellulose, lactose, croscarmellose sodium, sodium chloride, colloidal silicon dioxide, and magnesium stearate. Only half of the magnesium stearate was added prior to roller compaction. The second half of the magnesium stearate and the remaining croscarmellose sodium was added after roller compaction and the resulting powder mix was blended further.
The oral absorption obtained from grazoprevir and Formulation 3 with (Treatment 2) and without (Treatment 1) co-administration of a pH-raising medication was evaluated as part of human clinical study.

A short description of data set [2]: Human clinical biocomparison study: oral absorption of Formulation 1 with and without pH-raising medication. The settings on record: in vivo, 100 mg, healthy subjects. The procedure:
FIG. 1 outlines the process used to make Formulation 1.
The oral absorption obtained from Formulation 1 with and without pH-modifying medications was evaluated as part of human clinical study. Formulation 1 was dosed by itself (Treatment 1) and in the presence of a medication that raises gastric pH (Treatment 2).

Setting [3] is: Treatment 1: grazoprevir and Formulation 3 without pH-raising medication.
The mark [4] stands for this setting: Treatment 1: Formulation 1 dosed by itself.

Turning to `COC(=O)N[C@H](C(=O)N1CCC[C@H]1c1nc(-c2ccc3c(c2)O[C@@H](c2ccccc2)n2c-3cc3cc(-c4c[nH]c([C@@H]5CCCN5C(=O)[C@@H](NC(=O)OC)C(C)C)n4)ccc32)c[nH]1)C(C)C` [Compound I, dimethyl N,N′-([(6S)-6-phenylindolo[1,2-c][1,3]benzoxazine-3,10-diyl]bis {1H-imidazole-5,2-diyl-(2S)-pyrrolidine-2,1-diyl[(2S)-3-methyl-l-oxobutane-1,2-diyl]})dicarbamate], the total exposure AUC(0-inf) in data set [1] (setting [3]) was found to be 1.97 µM·h; in data set [1] (Treatment 2: grazoprevir and Formulation 3 with pH-raising medication) it was 1.79 µM·h; in data set [2] (setting [4]), 3.77 µM·h; in data set [2] (Treatment 2: Formulation 1 with pH-raising medication), 1.57 µM·h. Also, the Cmax in data set [1] (setting [3]) amounted to 102 nM; in data set [2] (setting [4]) it was 216 nM.
